Laboratory results published in patent US5691155A, “Nucleotide sequences encoding the murine β3-adrenergic receptor and their applications” (priority 1991, dated 1997).
Entries after “also recorded” stand apart in the source; their conditions may differ. Like-named read-outs stand apart in the source and are kept apart here.

How the values were obtained:
murine RA-β3 [1] = biological target: T1, murine RA-β3 (Mus musculus, UniProt P25962); assay: cAMP accumulation in CHO-Muβ3 cells (agonists); format: cell-based; details: for A.I. (% IPR), intrinsic activity: % of maximum effect of (-)-isoproterenol; for maximum stimulation of cAMP accumulation: % of that for (-)-isoproterenol; for activation of receptor by β1 and β2 antagonists (in words): murine RA-β3; for agonist type (in words): murine RA-β3, CHO-Muβ3
T1 construct: expressed in transfected cells
T1 sequence (P25962 1-388): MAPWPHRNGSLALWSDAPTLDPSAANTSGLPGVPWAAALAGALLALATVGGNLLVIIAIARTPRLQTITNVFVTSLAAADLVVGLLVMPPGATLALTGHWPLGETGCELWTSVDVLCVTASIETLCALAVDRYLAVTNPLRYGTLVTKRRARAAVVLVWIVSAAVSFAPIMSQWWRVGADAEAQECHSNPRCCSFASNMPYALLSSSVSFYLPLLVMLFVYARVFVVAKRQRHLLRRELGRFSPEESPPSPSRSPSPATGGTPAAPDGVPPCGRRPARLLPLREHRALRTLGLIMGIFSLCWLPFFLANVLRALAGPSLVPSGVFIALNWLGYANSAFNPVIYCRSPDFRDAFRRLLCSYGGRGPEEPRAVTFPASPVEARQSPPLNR
Procedure: (§1) a. Test for cAMP Accumulation
(§2) preconfluent cells such as those described in Example 5 (5×10^5) are incubated at 37° C. for 20 minutes in 0.5 ml of HANKS buffer containing 20 mM HEPES (pH 7.4), 1 mM ascorbic acid, 1 mM isobutylmethylxanthine and various concentrations of agonist.
(§3) After boiling for 5 min and centrifugation (4000 r.p.m., 10 min, 4° C.), the quantity of cAMP produced is determined using the Amersham cAMP kit.
To determine the pharmacological profile of murine RA-β3, the coding region of its gene was inserted into an expression vector like that described in Example 5.
(§4) The Kact values correspond to the agonist concentration giving 50% of the maximum stimulation.

obese rat cells = details: cited from earlier work
human RA-β3 [2] = biological target: T2, human RA-β3 (Homo sapiens, UniProt P13945); assay: cAMP accumulation in CHO-Huβ3 cells (agonists); format: cell-based; details: for EC50: CHO-Huβ3, agonist concentration giving 50% of the maximum stimulation, read-out: Kact; for activation of receptor by β1 and β2 antagonists (in words): human RA-β3
T2 construct: expressed in transfected cells; host or cells: CHO (Chinese Hamster Ovary), CHO-Huβ3
T2 sequence (P13945 1-402): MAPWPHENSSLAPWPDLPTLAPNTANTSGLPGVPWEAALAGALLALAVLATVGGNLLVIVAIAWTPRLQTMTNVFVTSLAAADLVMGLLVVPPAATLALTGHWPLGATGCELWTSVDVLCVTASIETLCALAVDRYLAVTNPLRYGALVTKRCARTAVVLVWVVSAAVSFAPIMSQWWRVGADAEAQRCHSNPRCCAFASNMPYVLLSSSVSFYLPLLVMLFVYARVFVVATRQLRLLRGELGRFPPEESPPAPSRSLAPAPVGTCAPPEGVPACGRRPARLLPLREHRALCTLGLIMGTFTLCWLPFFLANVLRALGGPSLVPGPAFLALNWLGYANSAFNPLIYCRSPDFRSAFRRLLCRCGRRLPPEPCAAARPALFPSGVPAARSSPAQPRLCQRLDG
Procedure: In order to be able to directly compare the properties of the murine and human β3-AR receptors, it was decided to express the mouse β3 gene in the CHO (Chinese Hamster Ovary) cell line which has already been used to analyse the human β3-AR receptor (see French Patent Application No. 89 00918).
as §1, §2, §3, §4

RA-β3 = details: cited from earlier work
murine RA-β3 [3] = biological target: T1, murine RA-β3; assay: Inhibition of (-)-isoproterenol-induced cAMP accumulation in CHO-Muβ3 cells (antagonists); format: cell-based; details: for concentration required to inhibit isoproterenol-induced cAMP accumulation (in words): CHO-Muβ3, 5 nM (-)-isoproterenol; for inhibition of isoproterenol-induced accumulation of cAMP (in words): murine RA-β3
human RA-β3 [4] = biological target: T2, human RA-β3; assay: Inhibition of isoproterenol-induced cAMP accumulation in CHO-Huβ3 cells (antagonists); format: cell-based
murine RA-β3 [5] = biological target: T1, murine RA-β3; assay: Binding of [^125 I]ICYP to saturation, intact CHO-Muβ3 cells; details: saturation/Scatchard, mean±SEM, n=3, read-out: dissociation constant
Procedure: b. Test for the Binding of ICYP
preconfluent cells such as those described in Example 5 (10^5) are incubated for 1 hour at 37° C. in a HANKS buffer containing 20 mM HEPES (pH 7.4), 1 mM ascorbic acid, 2 μM desipramine, 0.05% bovine serum albumin and 70-7000 pM (-)-[^125 I]ICYP (2000 Ci/mmol, Amersham).
The incubations are stopped by dilution in cold PBS buffer and the bound ligand is separated from free [^125 I]ICYP by filtration (Whatman GF/C filters impregnated with 0.3% polyethyleneimine).
The filters are washed 3 times with cold PBS buffer and the radioactivity is measured.

[6] = CHO-Muβ3, agonist concentration giving 50% of the maximum stimulation, read-out: Kact

In the case of C[C@H](Cc1ccc(OCC(=O)O)cc1)NC[C@H](O)c1cccc(Cl)c1 (relative stereo) [BRL 37344], the EC50 (murine RA-β3 [1]) is reported as 0.0004 ± 0.0001 µM, the “stimulation of cAMP accumulation (in words)” value (murine RA-β3 [1]; CHO-Muβ3) is reported as “potent agonist effect” and the “A.I. (% IPR), intrinsic activity” value (murine RA-β3 [1]; CHO-Muβ3) is reported as 107.4 ± 8.1%. For the same compound, the “agonist potency in mice compared with human (in words)” value (murine RA-β3 [1]; murine vs human RA-β3) was “increased potency” and the “stimulation of cAMP accumulation, of lipolysis and of thermogenesis (in words)” value (obese rat cells) was “effectiveness in the stimulation of cAMP accumulation, of lipolysis and of thermogenesis”.
In the case of CNCC(O)c1ccc(O)c(O)c1 (single isomer, unassigned; (-)) [(-)-adrenalin], the EC50 (human RA-β3 [2]) is reported as 0.0492 ± 0.0053 µM, the “stimulation of cAMP accumulation (in words)” value (murine RA-β3 [1]; CHO-Muβ3) is reported as “accumulation of cAMP is stimulated” and the “A.I. (% IPR), intrinsic activity” value (murine RA-β3 [1]; CHO-Muβ3) is reported as 90.6 ± 2.9%. For the same compound, the EC50 (murine RA-β3 [1]; [6]) was 0.023 ± 0.0003 µM.
In the case of CC(C)NCC(O)c1ccc(O)c(O)c1 (single isomer, unassigned; (-)) [(-)-isoproterenol], the “maximum concentration of cAMP induced by isoproterenol” value (murine RA-β3 [1]) is reported as 500 pmol per million cells.
For NC[C@H](O)c1ccc(O)c(O)c1 [(-)-noradrenaline], the EC50 (murine RA-β3 [1]) was 0.0129 ± 0.0042 µM, the “stimulation of cAMP accumulation (in words)” value (murine RA-β3 [1]; CHO-Muβ3) was “accumulation of cAMP is stimulated” and the Emax (murine RA-β3 [1]; read-out: A.I. (% IPR), intrinsic activity) was 106 ± 5.6%.
For CC(C)(C)NCC(O)COc1cccc2[nH]c(=O)[nH]c12 (stereo not shown) [CGP 12177A], the EC50 (human RA-β3 [2]) is given as 0.139 ± 0.0443 µM, the “activation of receptor by β1 and β2 antagonists (in words)” value (shortened to “activation of receptor”) (human RA-β3 [2]) is given as “can be activated” and the “lipolysis and adenylate cyclase activity (in words)” value (RA-β3) is given as “stimulates lipolysis and adenylate cyclase activity”. For the same compound, the “maximum stimulation of cAMP accumulation” value (murine RA-β3 [1]; CHO-Muβ3) was 77%, the “A.I. (% IPR), intrinsic activity” value (murine RA-β3 [1]; CHO-Muβ3) was 74.9 ± 7.9% and the “activation of receptor” value (murine RA-β3 [1]) was “can be activated”. The “agonist type (in words)” value (murine RA-β3 [1]) was “behave like partial agonists”.
In the case of Cn1cc(C(F)(F)F)nc1-c1ccc(OCC(O)CNCCOc2ccc(O)c(C(N)=O)c2)cc1 (stereo not shown) [CGP 20712A], the Ki (murine RA-β3 [3]) is reported as 6.42 ± 0.584 µM, the “concentration required to inhibit isoproterenol-induced cAMP accumulation (in words)” value (murine RA-β3 [3]) is reported as “micromolar concentrations are required; also recorded: micromolar amounts” and the “inhibition of isoproterenol-induced accumulation of cAMP (in words)” value (“inhibition” for short) (murine RA-β3 [3]) is reported as “weak inhibitors”. For the same compound, the “inhibition” value (human RA-β3 [4]) was “weak inhibitors”.
In the case of Cc1ccc(OCC(O)C(C)NC(C)C)c2c1CCC2 (stereo not shown) [ICI 118551], the Ki (murine RA-β3 [3]) is reported as 4.97 ± 0.137 µM, the “concentration required to inhibit isoproterenol-induced cAMP accumulation (in words)” value (murine RA-β3 [3]) is reported as “micromolar concentrations are required; also recorded: micromolar amounts” and the “inhibition” value (murine RA-β3 [3]) is reported as “weak inhibitors”. The “inhibition” value (human RA-β3 [4]) was “weak inhibitors”.
Compound CC(C)(C)NC[C@H](O)COc1cccc2[nH]c(C#N)c([125I])c12 [ICYP, [^125 I]iodocyanopindolol] has a Kd (murine RA-β3 [5]) of 0.00088 ± 8.8e-05 µM.
In the case of CC(C)NCC(O)COc1cccc2ccccc12 (stereo not shown) [Propranolol], the “inhibition” value (human RA-β3 [4]) is reported as “weak inhibitors”.
For C=CCOc1ccccc1OCC(O)CNC(C)C (stereo not shown) [oxprenolol], the EC50 (human RA-β3 [2]) was 0.0766 ± 0.0126 µM, the “activation of receptor” value (human RA-β3 [2]) was “can be activated” and the “maximum stimulation of cAMP accumulation” value (murine RA-β3 [1]; CHO-Muβ3) was 45%. The “A.I. (% IPR), intrinsic activity” value (murine RA-β3 [1]; CHO-Muβ3) was 43.8 ± 6.1%, the EC50 (murine RA-β3 [1]; [6]) was 0.535 ± 0.0793 µM and the “activation of receptor” value (murine RA-β3 [1]) was “can be activated”. For the same compound, the “agonist type (in words)” value (murine RA-β3 [1]) was “behave like partial agonists”.
In the case of CC(C)NCC(O)COc1cccc2[nH]ccc12 (stereo not shown) [pindolol], the “activation of receptor” value (human RA-β3 [2]) is reported as “can be activated”, the “maximum stimulation of cAMP accumulation” value (murine RA-β3 [1]; CHO-Muβ3) is reported as 36% and the “A.I. (% IPR), intrinsic activity” value (murine RA-β3 [1]; CHO-Muβ3) is reported as 35.1 ± 3.1%. For the same compound, the EC50 (murine RA-β3 [1]; [6]) was 0.999 ± 0.197 µM, the “activation of receptor” value (murine RA-β3 [1]) was “can be activated” and the “agonist type (in words)” value (murine RA-β3 [1]) was “behave like partial agonists”.
